Laboratory results published in paper PMC4972871, “Optimization of Electrospray Ionization by Statistical Design of Experiments and Response Surface Methodology: Protein–Ligand Equilibrium Dissociation Constant Determinations” (Journal of the American Society for Mass Spectrometry, 2016).

Columns and labels:
[1] = target: T1, Plasmodium vivax guanylate kinase (PvGK) (Plasmodium vivax, UniProt A5K709); assay: native ESI-FT-ICR-MS titration (optimized source); confirmed by competition with GMP ([…]); format: binding
T1 construct: gene PVX_099895; Full-length guanylate kinase with an N-terminal 6-histidine tag (23545 Da)

[2] = target: T1, Plasmodium vivax guanylate kinase (PvGK); assay: native ESI-FT-ICR-MS titration (optimized source conditions); format: binding

T1 sequence (A5K709 entry or part of it): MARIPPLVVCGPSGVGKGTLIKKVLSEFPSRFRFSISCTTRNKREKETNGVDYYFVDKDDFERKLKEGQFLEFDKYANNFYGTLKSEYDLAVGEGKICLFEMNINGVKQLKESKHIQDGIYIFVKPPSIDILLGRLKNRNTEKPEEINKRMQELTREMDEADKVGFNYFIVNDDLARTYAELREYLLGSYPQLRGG

| SMILES | Kd [1] [nM] | Kd [2] [nM] |
| --- | --- | --- |
| Nc1nc2c(ncn2[C@@H]2O[C@H](COP(=O)(O)OP(=O)(O)O)[C@@H](O)[C@H]2O)c(=O)[nH]1 [GDP] | 300 ± 30 |  |
| Nc1nc2c(ncn2[C@@H]2O[C@H](COP(=O)(O)O)[C@@H](O)[C@H]2O)c(=O)[nH]1 [GMP] |  | 1840 ± 110 |
